PMC10603063, “A quantitative method for determination of colistin E2 methanesulphonate in human plasma by ^15N-labeled colistin E2” (Scientific Reports, 2023)
Read-outs that look alike come from different tables or passages of the source. Peptide text beside a SMILES is read from it.

Columns and labels:
[1] = for long-term storage stability: colistin E2-spiked samples, at least 93 days
Procedure: (§1) Referring to Zhou et al.[10], for each plasma sample, 100 µL of 5% ammonia was added to a mixture containing 100 µL of CMS E2 calibration plasma standards or QCs and 20 µL of 15 µg/ml IS solution. After vortexing, the mixtures were loaded onto WCX SPE plates. Before loading the sample, the WCX SPE plates were preconditioned with 1 ml methanol followed by 1 mL water to activate the extraction. The plate was sequentially washed with 1 mL of water, 1 mL of methanol, 1 mL of 70% ACN with 2% ammonia, and 1 ml 0.5% FA. Subsequently, 300 µL of 70% ACN with 6% FA was used to elute the analytes twice. Total eluents (600 µL) were collected with an SPE 96-Deep Square Well collection plate, mixed in a 96-well plate mixer, and analyzed by UHPLC-MS/MS.
(§2) The stability of colistin E2 was evaluated at two levels (low and high QCs).
(§3) The hydrolysis of CMS E2 is temperature dependent; the lower the temperature, the slower the hydrolysis rate. The samples were processed in ice water. Therefore, we studied their stability in ice-water. In the presence of CMS E2 (the spiked concentration was 50 times the concentration of colistin, which can cover the clinical samples), the stability of colistin E2 was also evaluated under the following conditions: on the bench top in ice water for 21 h, four freeze–thaw cycles, storage at − 20 ℃ and − 80 ℃ (at least 98 days), and storage of extracts at 4 ℃ in an auto-sampler for 22.5 h.
The method was used for the stability study, and all the following medicinal solutions and plasma samples were prepared and used in an ice water bath and stored at -20 °C after use.
2.6.4 Preparation of plasma quality control sample QC_mix for CMS E2/Colistin E2

[2] = stock solution in methanol: water (1: 1)
Procedure: as §2
The standard curve stock solution and the quality control stock solution for colistin E2 need to be prepared from different weighing. All solutions were kept at -20°C.
The colistin E2 reference was accurately weighed and dissolved with an appropriate amount of methanol: water (1: 1) to prepare a stock solution SS-A with a concentration of 3 mg/mL.

[3] = Procedure: as §1, §2, §3
[4] = remark: listed apart in the source
Procedure: as §2
The hydrolysis of CMS E2 is temperature dependent; the lower the temperature, the slower the hydrolysis rate. The samples were processed in ice water. Therefore, we studied their stability in ice-water. In the presence of CMS E2 (the spiked concentration was 50 times the concentration of colistin, which can cover the clinical samples), the stability of colistin E2 was also evaluated under the following conditions: […], four freeze–thaw cycles, storage at − 20 ℃ and − 80 ℃ (at least 98 days), and storage of extracts at 4 ℃ in an auto-sampler for 22.5 h.

[5] = test system: Bordetella bronchitica ATCC4617; assay: Cylinder-plate potency method of the United States pharmacopoeia; assay type: cell-based
Excerpt: In addition to at least 30 minor polymyxins with very similar physiochemical properties, colistin consists of colistin E1 and colistin E2 (Fig. 1)[6]. According to European Pharmacopoeia records, the components with the same molecular weight as colistin E1 are colistin E1-7MOA and E1-I, and colistin E2 is colistin E3, E2-I, and E1-Nva. In short, except for the principal components colistin E1 and E2, other components with similar physicochemical properties account for nearly 20% of colistin. These components could not be separated from colistin E1/E2 using mobile phases containing formic acid but were identified as a single peak of polymyxin E1/E2 by HPLC. This neglected problem actually brings some interferes with single component or colistin quantification. In the process of developing CMS, we successfully purified single components of colistin E1 and E2 with a purity of more than 99% by preparative HPLC using a specific salt mobile phase.

CC(C)CCCCC(=O)N[C@@H](CCN)C(=O)N[C@H](C(=O)N[C@@H](CCN)C(=O)N[C@H]1CCNC(=O)[C@H]([C@@H](C)O)NC(=O)[C@H](CCN)NC(=O)[C@H](CCN)NC(=O)[C@H](CC(C)C)NC(=O)[C@@H](CC(C)C)NC(=O)[C@H](CCN)NC1=O)[C@@H](C)O [colistin E2] (HELM PEPTIDE1{[CC(C)CCCCC(=O)[*:2]].[Dab].T.[Dab].[Dab].[Dab].[dL].L.[Dab].[Dab].T}$PEPTIDE1,PEPTIDE1,5:R3-11:R2$$$V2.0)
benchtop stability ([1]; colistin E2-spiked plasma, low and high QCs, without CMS E2, bench top in ice water for 24 h): no degradation
freeze–thaw stability ([1]; colistin E2-spiked plasma, low and high QCs, without CMS E2, four freeze–thaw cycles): no degradation
long-term storage stability ([1]; low and high QCs, −20 ℃): no degradation
long-term storage stability ([1]; low and high QCs, −80 ℃): no degradation
%Change, benchtop stability ([1]; human plasma (EDTA-K2) spiked with CMS E2 (50 times colistin concentration; QC_mix 24/0.48 µg/mL), 21 h in ice water, UHPLC-MS/MS): 2.0%
%Change, long-term stability ([1]; human plasma spiked with CMS E2, 41 d in freezer (−20℃), UHPLC-MS/MS): 1.3%
stability of stock solutions ([2]; stored at ambient for 21 h): no degradation
stability of stock solutions, long-term ([2]; −20 ℃ for at least 97 days): no degradation
duration of stability in the auto-sampler ([3]; extracts after WCX SPE removal of CMS E2, auto-sampler (4℃)): at least 22.5 h
stability of extracts ([3]; extracts at 4 ℃ in an auto-sampler for 65.5 h, without CMS E2): no degradation
%Change, processed sample stability ([3]; sample extracts of matrix spiked with CMS E2, 22.5 h in an auto-sampler (4℃), UHPLC-MS/MS): 4.4%
percentage of change in blood spiked with CMS E2 ([4]; blood spiked with CMS E2, ice water for 60 min): less than 15%
stability in fresh whole blood ([4]; fresh whole blood (EDTA-K2), bench top in ice water for 66 min, without CMS E2): no degradation
antibacterial activity (comparison of purified single components) ([5]; single components purified to more than 99% by preparative HPLC): higher than that of E1

colistin E2 methanesulphonate [CMS E2]
potency ([5]; cylinder-plate method, United States pharmacopoeia, test bacteria Bordetella bronchitica ATCC4617): 611 µg/mg
